What was measured:
Erysiphe graminis = assay: Test for Preventive Effect on Wheat Powdery Mildew; format: in vivo; set-up: key: A: No diseased area; B: Diseased area of less than 25%; C: Diseased area of at least 25% but less than 50%; Diseased area of at least 50%; conditions: wheat seedlings (Norin-61-go), 500 ppm active ingredient, 10 ml per pot, 10 days after inoculation
Procedure: [table] Test for Preventive Effect on Wheat Powdery Mildew 9 wheat seeds (variety: […] Then, the seedlings were inoculated with […] graminis spores in suspension and placed in a greenhouse at 25 to 30° C. 10 days after the inoculation, the total diseases area of the first leaves in each pot was observed and evaluated on the basis of the standards shown in Table 59. The results are shown in Tables 67 to 71.

Venturia inaequalis = assay: Test for Preventive Effect on Apple Scab; format: in vivo; set-up: key: A: No diseased area; B: Diseased area of less than 25%; C: Diseased area of at least 25% but less than 50%; Diseased area of at least 50%; conditions: 14 days after inoculation; for Evaluation (diseased area of the upper two inoculated leaves): apple seedlings (Kogyoku), 500 ppm active ingredient, 20 ml per pot; for Evaluation (diseased areas of the upper two of the inoculated leaves): apple seedlings, wettable powder at 500 ppm active ingredient, preventive
Procedure: [table] Test for Preventive Effect on Apple Scab 5 apple seeds (variety: Kogyoku) were sown in each 9 cm×9 cm polyvinyl chloride pot and grown in a greenhouse for 20 days. […] Then, the seedlings were inoculated with Venturia inaequalis spores in suspension by spraying and immediately placed in a moist chamber at 22° C. for 48 hours. Thereafter, the seedlings were placed in a greenhouse for development of the disease. 14 days after the inoculation, the diseased areas of the upper two of the inoculated leaves were observed and evaluated on the basis of the standards shown in Table 59.

## COC(=O)NC(C)c1cccc(-c2ccc(C)cc2)c1 (racemic) [3-7]
Erysiphe graminis
  Evaluation (total diseased area of the first leaves in each pot): A
Venturia inaequalis
  Evaluation (diseased area of the upper two inoculated leaves): A

## COC(=O)NC(C)c1cccc(-c2ccc(C(F)(F)F)cc2)c1 (racemic) [3-17]
Erysiphe graminis
  Evaluation (total diseased area of the first leaves in each pot): A
Venturia inaequalis
  Evaluation (diseased area of the upper two inoculated leaves): A

## COC(=O)NC(C)c1cccc(-c2ccc(Cl)cc2Cl)c1 (racemic) [3-18]
Erysiphe graminis
  Evaluation (total diseased area of the first leaves in each pot): A
Venturia inaequalis
  Evaluation (diseased area of the upper two inoculated leaves): A

## COC(=O)NC(C)c1cc(-c2ccccc2)ccc1F (racemic) [3-26]
Erysiphe graminis
  Evaluation (total diseased area of the first leaves in each pot): B (Diseased area of less than 25%)
Venturia inaequalis
  Evaluation (diseased area of the upper two inoculated leaves): A

## COC(=O)NC(C)c1cc(-c2ccc(C)cc2)ccc1F (racemic) [3-32]
Erysiphe graminis
  Evaluation (total diseased area of the first leaves in each pot): B (Diseased area of less than 25%)
Venturia inaequalis
  Evaluation (diseased area of the upper two inoculated leaves): B (Diseased area of less than 25%)

## CCC(NC(=O)OC)c1cccc(-c2ccccc2)c1 (racemic) [3-101]
Erysiphe graminis
  Evaluation (total diseased area of the first leaves in each pot): B (Diseased area of less than 25%)

## CCC(NC(=O)OC)c1cccc(-c2ccc(Cl)cc2)c1 (racemic) [3-105]
Erysiphe graminis
  Evaluation (total diseased area of the first leaves in each pot): B (Diseased area of less than 25%)

## CCC(NC(=O)OC)c1cccc(-c2ccc(C)cc2)c1 (racemic) [3-107]
Erysiphe graminis
  Evaluation (total diseased area of the first leaves in each pot): B (Diseased area of less than 25%)
Venturia inaequalis
  Evaluation (diseased area of the upper two inoculated leaves): B (Diseased area of less than 25%)

## COC(=O)NCc1cccc(-c2ccccc2Cl)c1 [1-2]
Erysiphe graminis
  Evaluation (total diseased area of the first leaves in each pot): A
Venturia inaequalis
  Evaluation (diseased areas of the upper two of the inoculated leaves): A

## COC(=O)NCc1cccc(-c2cccc(F)c2)c1 [1-6]
Erysiphe graminis
  Evaluation (total diseased area of the first leaves in each pot): A
Venturia inaequalis
  Evaluation (diseased areas of the upper two of the inoculated leaves): A

## COC(=O)NCc1cccc(-c2ccccc2C)c1 [1-10]
Erysiphe graminis
  Evaluation (total diseased area of the first leaves in each pot): A
Venturia inaequalis
  Evaluation (diseased areas of the upper two of the inoculated leaves): A

## CCc1cccc(-c2cccc(CNC(=O)OC)c2)c1 [1-13]
Erysiphe graminis
  Evaluation (total diseased area of the first leaves in each pot): A
Venturia inaequalis
  Evaluation (diseased areas of the upper two of the inoculated leaves): A

## CCc1ccc(-c2cccc(CNC(=O)OC)c2)cc1 [1-14]
Erysiphe graminis
  Evaluation (total diseased area of the first leaves in each pot): B (Diseased area of less than 25%)
Venturia inaequalis
  Evaluation (diseased areas of the upper two of the inoculated leaves): A

## COC(=O)NCc1cccc(-c2cccc(C(C)C)c2)c1 [1-17]
Erysiphe graminis
  Evaluation (total diseased area of the first leaves in each pot): B (Diseased area of less than 25%)
Venturia inaequalis
  Evaluation (diseased areas of the upper two of the inoculated leaves): A

## COC(=O)NCc1cccc(-c2ccc(C(C)C)cc2)c1 [1-18]
Erysiphe graminis
  Evaluation (total diseased area of the first leaves in each pot): A
Venturia inaequalis
  Evaluation (diseased areas of the upper two of the inoculated leaves): A

## COC(=O)NCc1cccc(-c2ccccc2OC)c1 [1-40]
Erysiphe graminis
  Evaluation (total diseased area of the first leaves in each pot): A
Venturia inaequalis
  Evaluation (diseased areas of the upper two of the inoculated leaves): A

## COC(=O)NCc1cccc(-c2ccc(OC(F)(F)F)cc2)c1 [1-72]
Erysiphe graminis
  Evaluation (total diseased area of the first leaves in each pot): A
Venturia inaequalis
  Evaluation (diseased areas of the upper two of the inoculated leaves): A

## COC(=O)NCc1cccc(-c2ccc(Cl)cc2Cl)c1 [1-117]
Venturia inaequalis
  Evaluation (diseased areas of the upper two of the inoculated leaves): A

## COC(=O)NCc1cccc(-c2ccc(F)c(F)c2)c1 [1-120]
Erysiphe graminis
  Evaluation (total diseased area of the first leaves in each pot): A
Venturia inaequalis
  Evaluation (diseased areas of the upper two of the inoculated leaves): A

## COC(=O)NCc1cccc(-c2ccc(F)c(Cl)c2)c1 [1-122]
Erysiphe graminis
  Evaluation (total diseased area of the first leaves in each pot): A
Venturia inaequalis
  Evaluation (diseased areas of the upper two of the inoculated leaves): A

## COC(=O)NCc1cccc(-c2ccc(C)c([N+](=O)[O-])c2)c1 [1-137]
Venturia inaequalis
  Evaluation (diseased areas of the upper two of the inoculated leaves): A

## CCOC(=O)NCc1cccc(-c2ccccc2)c1 [1-146]
Erysiphe graminis
  Evaluation (total diseased area of the first leaves in each pot): B (Diseased area of less than 25%)
Venturia inaequalis
  Evaluation (diseased areas of the upper two of the inoculated leaves): B (Diseased area of less than 25%)

## CCCCOC(=O)NCc1cccc(-c2ccccc2)c1 [1-148]
Erysiphe graminis
  Evaluation (total diseased area of the first leaves in each pot): B (Diseased area of less than 25%)

## COC(=O)N(C)Cc1cccc(-c2ccccc2)c1 [1-163]
Erysiphe graminis
  Evaluation (total diseased area of the first leaves in each pot): A
Venturia inaequalis
  Evaluation (diseased areas of the upper two of the inoculated leaves): A

## CCN(Cc1cccc(-c2ccccc2)c1)C(=O)OC [1-165]
Erysiphe graminis
  Evaluation (total diseased area of the first leaves in each pot): B (Diseased area of less than 25%)
Venturia inaequalis
  Evaluation (diseased areas of the upper two of the inoculated leaves): A

## CCCN(Cc1cccc(-c2ccccc2)c1)C(=O)OC [1-166]
Erysiphe graminis
  Evaluation (total diseased area of the first leaves in each pot): B (Diseased area of less than 25%)
Venturia inaequalis
  Evaluation (diseased areas of the upper two of the inoculated leaves): B (Diseased area of less than 25%)

## C=CCN(Cc1cccc(-c2ccccc2)c1)C(=O)OC [1-168]
Erysiphe graminis
  Evaluation (total diseased area of the first leaves in each pot): A
Venturia inaequalis
  Evaluation (diseased areas of the upper two of the inoculated leaves): A

## C#CCN(Cc1cccc(-c2ccccc2)c1)C(=O)OC [1-178, Methyl N-(3-phenylbenzyl)-N-(2-propynyl)carbamate]
Erysiphe graminis
  Evaluation (total diseased area of the first leaves in each pot): A
Venturia inaequalis
  Evaluation (diseased areas of the upper two of the inoculated leaves): A

## COCN(Cc1cccc(-c2ccccc2)c1)C(=O)OC [1-192, Methyl N-methoxymethyl-N-(3-phenylbenzyl)carbamate]
Erysiphe graminis
  Evaluation (total diseased area of the first leaves in each pot): A
Venturia inaequalis
  Evaluation (diseased areas of the upper two of the inoculated leaves): A

## COCN(Cc1cccc(-c2ccccc2C)c1)C(=O)OC [1-193]
Erysiphe graminis
  Evaluation (total diseased area of the first leaves in each pot): B (Diseased area of less than 25%)
Venturia inaequalis
  Evaluation (diseased areas of the upper two of the inoculated leaves): A

## COCN(Cc1cccc(-c2cccc(C)c2)c1)C(=O)OC [1-194]
Erysiphe graminis
  Evaluation (total diseased area of the first leaves in each pot): A
Venturia inaequalis
  Evaluation (diseased areas of the upper two of the inoculated leaves): A

## COCN(Cc1cccc(-c2ccc(C)cc2)c1)C(=O)OC [1-195]
Erysiphe graminis
  Evaluation (total diseased area of the first leaves in each pot): A
Venturia inaequalis
  Evaluation (diseased areas of the upper two of the inoculated leaves): A

## COCN(Cc1cccc(-c2ccc(OC)cc2)c1)C(=O)OC [1-198]
Erysiphe graminis
  Evaluation (total diseased area of the first leaves in each pot): A
Venturia inaequalis
  Evaluation (diseased areas of the upper two of the inoculated leaves): A

## COCN(Cc1cccc(-c2ccc(F)cc2)c1)C(=O)OC [1-201]
Erysiphe graminis
  Evaluation (total diseased area of the first leaves in each pot): A
Venturia inaequalis
  Evaluation (diseased areas of the upper two of the inoculated leaves): A

## COCN(Cc1cccc(-c2ccccc2Cl)c1)C(=O)OC [1-202]
Erysiphe graminis
  Evaluation (total diseased area of the first leaves in each pot): A
Venturia inaequalis
  Evaluation (diseased areas of the upper two of the inoculated leaves): A

## CN(C)C(=O)NCc1cccc(-c2ccccc2)c1 [1-262]
Venturia inaequalis
  Evaluation (diseased areas of the upper two of the inoculated leaves): B (Diseased area of less than 25%)

## COC(=O)N(Cc1cccc(-c2ccccc2)c1)OC [1-264]
Erysiphe graminis
  Evaluation (total diseased area of the first leaves in each pot): A
Venturia inaequalis
  Evaluation (diseased areas of the upper two of the inoculated leaves): A

## COC(=O)N(Cc1cccc(-c2cccc(Cl)c2)c1)OC [1-275]
Erysiphe graminis
  Evaluation (total diseased area of the first leaves in each pot): A
Venturia inaequalis
  Evaluation (diseased areas of the upper two of the inoculated leaves): A

## COC(=O)N(Cc1cccc(-c2cccc(C(F)(F)F)c2)c1)OC [1-277]
Erysiphe graminis
  Evaluation (total diseased area of the first leaves in each pot): A
Venturia inaequalis
  Evaluation (diseased areas of the upper two of the inoculated leaves): A

## COC(=O)NCc1ccc(F)c(-c2ccccc2)c1 [2-17]
Erysiphe graminis
  Evaluation (total diseased area of the first leaves in each pot): B (Diseased area of less than 25%)
Venturia inaequalis
  Evaluation (diseased areas of the upper two of the inoculated leaves): A

## COC(=O)NCc1cc(-c2ccc(C(F)(F)F)cc2)ccc1OC [2-344]
Venturia inaequalis
  Evaluation (diseased area of the upper two inoculated leaves): A

## COC(=O)NCc1cc(-c2ccc(C(C)=O)cc2)ccc1Cl [2-451]
Venturia inaequalis
  Evaluation (diseased area of the upper two inoculated leaves): B (Diseased area of less than 25%)

From patent US6620961B1, “Biarylalkylenecarbamic acid derivatives and bacteriocides for agricultural and horticultural use” (Kumiai Chemical Industry Co., Ltd., priority 1997, dated 2003)
